Values after ≈ are worked out from the molar mass of the structure shown.
Legend:
[1] = physchem; conditions: for solubility: water; for Solubility in water at RT: solubility of the extractant
Experimental: (§1) The remaining mother liquor was extracted in one stage with various solvents (step (C)). […] The extraction was conducted at 30° C. The experiments were assessed by ascertaining the partition coefficients K (=ratio of the ortho-aminobenzoic acid [oAB] concentration in g/L in the organic phase [ORG=first alcoholic phase] to the aqueous phase [AQ=first aqueous phase]), the solubilities of the extractant in the aqueous phase after the extraction (=first aqueous phase) and—in four cases—the proportion by mass of organic secondary components (SC) in the organic extract phase (=first alcoholic phase) based on the totality of the organic secondary components in the two phases (=m(SC)ORG/m(SC)TOT). For this purpose, a separation was conducted by HPLC; organic impurities that elute earlier than ortho-aminobenzoic acid are referred to collectively as polar secondary components, and organic impurities that elute later than ortho-aminobenzoic acid as nonpolar secondary components.

[2] = One-stage extraction of ortho-aminobenzoic acid from crystallization mother liquor with various extractants (partition coefficient); conditions: pH 3.5±0.2, 8.7 g/L oAB, phase ratio organic to aqueous 0.5, 30° C.
Experimental: For the evaluation of the distribution of a component between two phases, the two phases were analyzed by HPLC-MS (with identical sample preparation and method). The coefficients of distribution were then determined as the ratio of peak areas for the same retention time.
as §1

Row | Structure (SMILES) | solubility [1] [µg/mL] | Solubility in water at RT [1] | also measured
1 | CCCCCCCCCCO [1-Decanol] | 40 (≈ 253 µM) |  | 
2 | CCC(C)=O [2-Butanone] |  |  | K = c(oAB)ORG/c(oAB)AQ (partition coefficient of ortho-aminobenzoic acid, organic to aqueous phase) [2]: 26.12
3 | CCCCOC(C)=O [Butyl acetate] | ~6000 |  | 
4 | CC1CCCC1 [Methylcyclopentane] |  | insoluble | 
5 | CCCCCCCC/C=C\CCCCCCCCO [Oleyl alcohol] |  | insoluble | 
